From PubChem BioAssay AID651703 (Broad Institute, 2012)

target: Transforming acidic coiled-coil-containing protein 3 (Homo sapiens) (UniProt Q9Y6A5); assay: ARNT/TACC3 interaction disruptors, potency, confirmation, biochemical, AlphaScreen, cherry-picked samples (AID 651703); conditions: AlphaScreen His-ARNT PAS-B / GST-TACC3 binding, luminescence;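 also: TACC3 partner is the GST-tagged E629A mutant dimer; hits lower the signal meaning they disrupt ARNT binding to TACC3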

SMILES | AC50 [µM]
COc1ccc(CCNC(=O)CSc2nnc3ccc(-c4ccccn4)nn23)cc1 | 33.5
CNc1nc(-c2ccccn2)nnc1-c1ccccc1 | < 0.5
Cc1ccc(-n2c(SCC(N)=O)nnc2-c2ccccn2)cc1 | 34.7
Oc1c(C(Nc2ccccn2)c2cccnc2)cc(Cl)c2cccnc12 (stereo not drawn) | 5.67
Cc1ccccc1CSc1nnc(-c2ccccn2)n1N | 31.7
c1ccc(-c2nnc(-c3ccccn3)nc2NCc2cccnc2)cc1 | < 0.5
O=C(Oc1ccc(Cl)c2cccnc12)c1cccnc1 | 9.58
COc1ccc([Si](C)(C)[C@@H]2[C@@H](CCO)O[C@]3(C(=O)N4c5c(cc(OC)cc53)C(C)=CC4(C)C)[C@H]2C)cc1 | 11.3
O=C(Nc1nnc(-c2ccncc2)o1)c1ccccc1 | 18.8
COc1cc2c(c(OC)c1OC)-c1ccc(O)c(=O)cc1[C@@H](NC(C)=O)CC2 | 40.8
CN(CC(=O)O)Cc1nc2ccccc2[nH]1 | 7.77
c1ccc(-c2nnc(-c3ccccn3)nc2Nc2nc3ccccc3s2)cc1 | 0.509
O=S1(=O)N=C(N/N=C/c2ccccn2)c2ccccc21 | 4.02
CN(C)c1nc(-c2ccccn2)nnc1-c1ccccc1 | < 0.5
O=C(Nc1ccc(F)cc1)c1nc[nH]c1C(=O)O | 14.3
CCOc1cc(CNCc2ccccn2)cc(Cl)c1OC | 39.7
CC(C)C(=O)NC(c1ccco1)c1ccc2cccnc2c1O (stereo not drawn) | 0.957
O=C(N[C@H]1CC[C@@H](CCn2cc(-c3ccccn3)nn2)O[C@@H]1CO)c1cccnc1 | 9.19
O=C(N/N=C/c1cc(Cl)cc(Cl)c1O)c1ccncc1 | 3.58
Cc1ccc2ccc3cccnc3c2n1 | 7.33

SMILES | AC50 [µM]
CCOc1cc(CNCc2ccccn2)cc(Cl)c1OCC | 45
CCOC(=O)CSc1cccc2cccnc12 | 4.59
Nc1ncnc(Oc2cccc3cccnc23)c1[N+](=O)[O-] | 11.1
O=C(CSc1nnc(-c2ccccn2)o1)Nc1ccccc1Cl | 9.92
Cc1ccccc1NC(=O)CSc1ccc(-c2ccccn2)nn1 | 3.47
Cc1[nH]n(-c2ccccc2)c(=O)c1/C=N\NC(=O)C1COc2ccccc2O1 (stereo not drawn) | 17.4
O=C(N[C@@H]1CC[C@H](CCn2cc(-c3ccccn3)nn2)O[C@H]1CO)c1cccnc1 | 12.2
O=C(COc1ccccc1)Nc1nnc(-c2ccco2)o1 | 36.6
CCOC(=O)N1CCN(S(=O)(=O)c2ccc(C(=O)Nc3nnc(C4CC4)o3)cc2)CC1 | 13.4
O=C(NCCCn1ccnc1)C(=O)NCC1OCCN1S(=O)(=O)c1ccccc1 (stereo not drawn) | 6.92
O=C(N[C@@H]1CC[C@H](CCn2cc(-c3ccccn3)nn2)O[C@@H]1CO)c1ccccc1 | 20.7
COc1cc(NC(=O)CSc2ccc(-c3ccccn3)nn2)cc(OC)c1 | 1.78
c1ccc(-c2nnc(-c3ccccn3)nc2N2CCN(c3ccncc3)CC2)cc1 | < 0.5
O=C(CN1C(=O)COc2ccccc21)Nc1ccc(F)cc1 | 3.96
O=C(CSc1ccc2nnc(-c3ccccn3)n2n1)Nc1ccccc1F | 28.6
c1ccc(-c2ccc(SCc3cccnc3)nn2)nc1 | 1.81
CN1CCN(C(=O)c2cccc(-c3cc(O)c4ncccc4c3)c2)CC1 | 2.72
Cc1ccc(Cn2cccc(NS(C)(=O)=O)c2=O)cc1 | 64.7
CCC(=O)NC(c1cc(Cl)c2cccnc2c1O)C(C)C (stereo not drawn) | 5.58
O=C(NCCCn1ccnc1)C(=O)NCC1OCCN1S(=O)(=O)c1ccc(F)cc1 (stereo not drawn) | 3.5

SMILES | AC50 [µM]
COc1ccccc1NC(=O)CSc1n[nH]c(-c2ccccn2)n1 | 0.821
N#CC1=C(N)Oc2c(ccc3cccnc23)C1c1cccnc1 (stereo not drawn) | 7.36
c1ccc(-c2cnc(Nc3nc(-c4ccccn4)nnc3-c3ccccc3)s2)cc1 | 0.916
Nn1c(SCC(=O)Nc2ccc3c(c2)OCCO3)nnc1-c1ccccn1 | 18.6
O=C(CC(=O)N/N=C/c1ccccc1O)NCc1cccnc1 | 32.8
O=C(Nc1nc(-c2ccccn2)cs1)c1cc(S(=O)(=O)N2CCOCC2)ccc1F | 4.43
Cn1c(-c2ccc3c(c2)OCO3)cnc1N | 39
COc1ccc(NC(=O)N[C@H]2CC[C@@H](CCn3cc(-c4ccccn4)nn3)O[C@H]2CO)cc1 | 17
CN1CC[C@@]2(C)c3cc(O)ccc3N(C)[C@@H]12 | 60.1
C(=N\Nc1ncnc2nc[nH]c12)/c1cccs1 | 57.8
CN(C)S(=O)(=O)c1cccc(NC(=O)CSc2cccc3cccnc23)c1 | 5.76
CC(=O)NC(c1ccc2ccccc2c1)c1ccc2cccnc2c1O (stereo not drawn) | 5.44
O=C(CN1C(=O)CCC1=O)Nc1nc(-c2ccccn2)cs1 | 4.39
CCN(C(=O)Cc1nc(N)n[nH]1)C1(C(=O)Nc2ccccc2)CCCCC1 | 20
C/C=C/c1ccc([C@H]2[C@@H](CNC(=O)CC)N(Cc3ccccn3)[C@H]2CO)cc1 | 45
Cc1cc(=O)n2c3c(c4c(cc13)c(CN(C)C)cc(=O)n4C)OC2 | 17.7
CC(=O)c1cccc(-c2ccc3c(=O)[nH]c(Nc4ccccc4)cc3c2)c1 | 23.1
COc1cccc(/C=N/Nc2ccnc(=O)[nH]2)c1O | 9.05
